{"source": "patent US20240115678A1", "about": "“PERSONALIZED […] CANCER THERAPY” (priority 2022, published 2024)", "origin": "cited, not measured here", "key": {"[1]": {"test_system": "hypoxia inducible factor (HIF)-1"}, "HUVEC": {"test_system": "HUVEC", "settings": "in vitro"}, "S-180 sarcoma": {"test_system": "S-180 sarcoma", "settings": "parenteral administration"}, "[2]": {"test_system": "neuroblastoma, bladder cancer, pancreatic cancer, mesothelioma, hepatoma cells", "settings": "in vitro"}, "vascular cord formation": {"test_system": "vascular cord formation", "settings": "in vivo administration"}, "[3]": {"test_system": "human xenografted glioma, overian, and neuroblastoma cells", "settings": "immune deficient animals"}, "[4]": {"test_system": "rat PAIII androgen-independent syngeneic prostate cancer cell line", "settings": "daily intraperitoneal for 30 days, evaluation at day 40"}, "[5]": {"test_system": "battery of tumor cell lines", "settings": "in vitro, combined with AA"}, "[6]": {"test_system": "T cell, B cell and NK cells", "settings": "high dose"}, "[7]": {"test_system": "monocytes derived from human peripheral blood"}, "[8]": {"test_system": "murine TECs and normal ECs", "settings": "with up-regulation of MDR1 mRNA"}, "NK cells": {"test_system": "NK cells", "settings": "animal experiments"}, "ovarian cancer": {"test_system": "ovarian cancer", "settings": "whole trial"}}}
{"molecule": "O=C1O[C@H]([C@@H](O)CO)C(O)=C1O", "note": "[AA, ascorbic acid]", "values": [{"measurement": "T cell activating ability of dendritic cells", "setting": "dendritic cells", "value": "inhibit"}, {"measurement": "activation of HIF-1", "setting": "[1]", "value": "suppresses activation"}, {"measurement": "HUVEC proliferation", "setting": "HUVEC", "value": "inhibits"}, {"measurement": "neovascularization", "setting": "neovascularization", "value": "suppressing neovascularization"}, {"measurement": "angiogenesis and pro-angiogenic factors bFGF, VEGF, and MMP-2", "setting": "S-180 sarcoma", "value": "suppression"}, {"measurement": "tumor growth", "setting": "S-180 sarcoma", "value": "reduced tumor growth"}, {"measurement": "cytotoxic effects on cancer cells", "setting": "[2]", "value": "cytotoxic effects at pharmacologically achievable concentrations"}, {"measurement": "vascular cord formation", "setting": "vascular cord formation", "value": "suppressed vascular cord formation"}, {"measurement": "inhibition of xenografted cells", "setting": "[3]", "value": "successful in vivo inhibition"}, {"measurement": "pulmonary and lymphatic metastasis", "setting": "[4]", "value": "reduction in pulmonary and lymphatic metastasis"}, {"measurement": "tumor growth", "setting": "[4]", "value": "significant inhibition of tumor growth"}, {"measurement": "cytotoxicity of Docetaxel, Epirubicin, Irinotecan and 5-FU", "setting": "[5]", "value": "Enhancement of cytotoxicity"}, {"measurement": "NK cytotoxic activity", "setting": "[6]", "value": "inhibits"}, {"measurement": "IL-2 secretion", "setting": "[6]; in vitro", "value": "inhibits"}, {"measurement": "T cell and B cell proliferative responses", "setting": "[6]; in vitro", "value": "inhibits"}]}
{"molecule": "COc1cc2nccc(Oc3ccc(NC(=O)Nc4ccc(F)cc4F)c(F)c3)c2cc1OC", "note": "[Ki8751]", "values": [{"measurement": "tumor CM-induced MDR1 up-regulation", "setting": "human microvascular ECs", "value": "blocked"}]}
{"molecule": "CCOCc1nc2c(N)nc3ccccc3c2n1CC(C)(C)O", "note": "[R-848]", "values": [{"measurement": "FcgammaRI, FcgammaRIIa, and the common gamma-subunit", "setting": "[7]", "value": "upregulation"}, {"measurement": "inhibitory FcgammaRIIb molecule", "setting": "[7]", "value": "profound downregulation"}, {"measurement": "FcgammaR-mediated cytokine production", "setting": "[7]; 12 hour exposure", "value": "increased"}, {"measurement": "antibody-dependent cellular cytotoxicity by monocytes", "setting": "[7]; 12 hour exposure", "value": "increased"}]}
{"molecule": "O=P1(N(CCCl)CCCl)NCCCO1", "note": "(stereo not drawn) [cyclophosphamide]", "values": [{"measurement": "effect on Treg cells", "setting": "Treg cells", "value": "inhibit Treg cells"}]}
{"molecule": "Nc1ccn([C@@H]2O[C@H](CO)[C@@H](O)C2(F)F)c(=O)n1", "note": "[gemcitabine]", "values": [{"measurement": "effect on Treg cells", "setting": "Treg cells", "value": "inhibit Treg cells"}]}
{"molecule": "CC(=O)O[C@H]1C(=O)[C@@]2(C)[C@H]([C@H](OC(=O)c3ccccc3)[C@]3(O)C[C@H](OC(=O)[C@H](O)[C@@H](NC(=O)c4ccccc4)c4ccccc4)C(C)=C1C3(C)C)[C@]1(OC(C)=O)CO[C@@H]1C[C@@H]2O", "note": "[paclitaxel]", "values": [{"measurement": "resistance of TECs compared with normal ECs", "setting": "[8]", "value": "more resistant"}]}
{"molecule": "CC(C)[C@]12O[C@H]1[C@@H]1O[C@]13[C@]1(O[C@H]1C[C@H]1C4=C(CC[C@@]13C)C(=O)OC4)[C@@H]2O", "note": "[triptolide]", "values": [{"measurement": "effect on Treg cells", "setting": "Treg cells", "value": "inhibit Treg cells"}]}
{"molecule": "Poly (IC)", "values": [{"measurement": "effect on Herceptin activity", "setting": "NK cells", "value": "augmentation of Herceptin activity"}]}
{"molecule": "arsenic trioxide", "values": [{"measurement": "effect on Treg cells", "setting": "Treg cells", "value": "inhibit Treg cells"}]}
{"molecule": "bevacizumab plus chemotherapy: Bevacizumab (Avastin), antibody which binds VEGF, given with chemotherapy", "values": [{"measurement": "median progression free survival (PFS)", "setting": "ovarian cancer; ovarian cancer patients", "value": 6.8, "unit": "months"}, {"measurement": "median OS", "setting": "ovarian cancer", "value": 16.6, "unit": "months"}, {"measurement": "HR for overall survival", "setting": "ovarian cancer; versus chemotherapy alone, 95 percent CI: 0.69, 1.14", "value": 0.89}]}
{"molecule": "IL-12: stimulator of NK cells (protein, UniProt P29459 23-219; P29460 23-328, looked up) Interleukin-12 subunit alpha: RNLPVATPDPGMFPCLHHSQNLLRAVSNMLQKARQTLEFYPCTSEEIDHEDITKDKTSTVEACLPLELTKNESCLNSRETSFITNGSCLASRKTSFMMALCLSSIYEDLKMYQVEFKTMNAKLLMDPKRQIFLDQNMLAVIDELMQALNFNSETVPQKSSLEEPDFYKTKIKLCILLHAFRIRAVTIDRVMSYLNAS Interleukin-12 subunit beta: IWELKKDVYVVELDWYPDAPGEMVVLTCDTPEEDGITWTLDQSSEVLGSGKTLTIQVKEFGDAGQYTCHKGGEVLSHSLLLLHKKEDGIWSTDILKDQKEPKNKTFLRCEAKNYSGRFTCWWLTTISTDLTFSVKSSRGSSDPQGVTCGAATLSAERVRGDNKEYEYSVECQEDSACPAAEESLPIEVMVDAVHKLKYENYTSSFFIRDIIKPDPPKNLQLKPLKNSRQVEVSWEYPDTWSTPHSYFSLTFCVQVQGKSKREKKDRVFTDKTSATVICRKNASISVRAQDRYYSSSWSEWASVPCS", "values": [{"measurement": "effect on Herceptin activity", "setting": "NK cells", "value": "augmentation of Herceptin activity"}]}
